Source: PMC6503114, “Application of Antimicrobial Peptides of the Innate Immune System in Combination With Conventional Antibiotics—A Novel Way to Combat Antibiotic Resistance?” (Frontiers in Cellular and Infection Microbiology, 2019)
In brackets after ≈: the same amount, converted by molar mass. Like-named read-outs stand apart in the source and are kept apart here. Where no end group is shown, it is not given here.

How the values were obtained:
Human PBMC = test: MTT-test
Method: To obtain neutrophils and mononuclear cells, whole heparinized blood was diluted with sterile PBS in a 1:1 ratio and carefully inserted into the sterile polystyrene 50 ml tube upon the 5 ml of the sterile Ficoll-400 (Pharmacia, Sweden) with a density of 1.077. The tube was centrifuged at 600 g and 4°C for 40 min. After separation, the mononuclear “ring” located between the blood plasma and Ficoll was collected with a Pasteur pipette, transferred to another tube, and washed twice with 10 ml of sterile PBS by centrifugation for 10 min at 300 g and 4°C.
(§1) We calculated Fractional Effective Concentration Index (FECI), which could be seen as a particular case of the interaction index (I) proposed by Berenbaum ([1977]) or of the similar combination index (CI) proposed by Chou and Talalay ([1983]), according to the equation below: […]
(§2) Here, [MEC A] and [MEC B] are the minimum effective concentrations (MEC) of substances A and B, when they are used alone. […] [A] and [B] are respective concentrations of substances A and B in their combination, where the same statistically significant difference is detected. A non-parametric Mann-Whitney U-test (p < 0.05 or p < 0.01) was used for the mentioned statistical comparison.
(§3) We have chosen the same intervals as that of FICI to determine synergy, additivity, independent action, and antagonism based on the minimal FECI values. However, in case of cytotoxic or hemolytic effect we were interested mainly in testing the possibility of additive or synergistic interaction itself, and not in assessing the exact magnitude of such interaction. Thus, in contrast to the “checkerboard titration” method used for combined antimicrobial activity investigation, studying the combined cytotoxic effect, we considered only two combinations of concentrations for the substances A and B in the mixture: • (½ MEC A + ½ MEC B), which, if found effective, provides the FECI value of 1 (the threshold value for additivity); • (¼ MEC A + ¼ MEC B), which, if found effective, provides the FECI value of 0.5 (the threshold value for synergetic interaction).
(§4) When action on tumor cells was tested in combination with antitumor antibiotic the lower concentrations up to ( 1/16 MEC A + 1/16 MEC B) as in checkerboard titration were additionally examined to assess the magnitude of synergistic effect more precisely. The final conclusion was made based on the three independent experiments.
(§5) Standard MTT-test (Mosmann, [1983]) was used for the examination of the cytotoxic activity of antimicrobial compounds and their combinations toward varied eukaryotic cells. Briefly, cell suspensions in RPMI-1640 prepared as described in Eukaryotic Cells were dispensed into the 96-well microplates (2 × 10^5 cells/well). Then, serial dilutions of AMPs, or other antibiotic compounds, or their mixtures in RPMI-1640 were added. In positive controls (100% cell survival) the according volume of RPMI-1640 without test substances was added instead. The final volume in each well was 100 μl. Negative controls (0% cell survival) were made with 100 μl of the sterile RPMI-1640. The plates were incubated at 37°C under 5% CO2 for 24 h. Four hours before the end of incubation, 10 μl of metabolic marker MTT−3-(4,5-dimethylthiazol-2-yl)-2,5-diphenyltetrazolium bromide (5 mg/ml, diluted in PBS) was added to each well. Incubation was stopped by adding 90 μl of isopropanol containing 0.04 M HCl. Content of the wells was thoroughly mixed, so that the formazan crystals, formed in case of the reduction of MTT in presence of actively metabolizing cells, were fully dissolved. The optical density of the samples was evaluated at 540 nm, subtracting the background absorbance at 690 nm, by SpectraMax 250 Spectrophotometer (Molecular Devices, USA). The experiments were repeated at least three times. In each experiment test samples were made in triplicates and control samples were made in hexaplicates.

E. coli ML-35p [1] = test: microbe, parasite or virus in culture; type: cell-based, Escherichia coli; conditions: median of 3–6 experiments, value in square brackets = twice the maximal tested concentration, read-out: MIC
Method: Prior to the “checkerboard” synergy test the minimal inhibitory concentrations (MIC) of individual substances were determined using broth microdilution assay. Testing was performed in 60-well polystyrene Terasaki microplates with V-shaped bottom generally according to the guidelines of the European Committee for Antimicrobial Susceptibility Testing with subtle modifications designed for AMP testing (Tossi et al., [1997]; Wiegand et al., [2008]). Cultivation of bacteria was carried out in 2.1% Müller-Hinton broth at 37°C with shaking. Two-fold serial dilutions of peptides, antibiotics and other antimicrobials were made with 10 mM sodium phosphate buffer, pH 7.4, containing 0.1% of BSA. The plates were preliminary incubated with 0.1% BSA for 1 h at 37°C to reduce a non-specific binding of peptides to the plates. After that BSA was removed, and serial dilutions were added into the plate wells in triplicates followed by the same volume of the suspension of bacterial cells in logarithmic phase of growth in concentration of 1 × 10^6 CFU/ml. After the 18 h overnight incubation at 37°C, the MIC value for each compound was determined as its lowest concentration completely inhibiting the visible growth of bacteria. The final results were calculated as median values based on 3–6 independent experiments.

Human neutrophils = tested on: Human neutrophils
Method: The pellet formed under the Ficoll-400 layer after separation contained both neutrophils and erythrocytes. It was also transferred into a separate tube, where the red blood cells were lysed with 0.83% ammonium chloride solution, which was added in a ratio of 1:4. After the thorough mixing, the suspension was incubated for 10 min at room temperature, and then centrifuged for 10 min at 300 g and 4°C. The resulting precipitate containing neutrophils was washed twice with the sterile PBS.
as §1, §2, §3, §4, §5

E. coli ML-35p [2] = test: Bacterial membrane permeabilization assay, inner membrane (ONPG); type: cell-based, Escherichia coli; conditions: ONPG marker; for effect on cytoplasmic membrane permeability, substance alone (in words): ¼ MIC
Excerpt: The method is based on the certain features of the specifically designed E. coli ML-35p bacterial strain. As its parental strain E. coli ML-35, this bacterium constitutively expresses cytoplasmic β-galactosidase, but is unable to transport β-galactoside containing substrates through the inner membrane in normal circumstances due to the lack of lactose permease. […] If the cytoplasmic membrane of the bacterium is damaged, the chromogenic marker o-nitrophenyl-β-D-galactoside (ONPG) penetrates into the cell and, when digested by bacterial β-galactosidase, produces a colored product o-nitrophenol. The accumulation of the latter can be spectrophotometrically detected at a wavelength of 420 nm.
Escherichia coli ML-35p was cultivated in the sterile 3% Trypticase soy broth (TSB) for 18 h at 37°C, then washed three times with 10 mM sodium phosphate buffer, pH 7.4 (10 min centrifugation at 600 g and 4°C), diluted up to the OD of 0.4 at 620 nm (1 × 10^8 CFU/ml concentration), and used immediately or kept on ice until the start of the test. […] Controls contained equivalent volume of acidified water instead of antimicrobial agent(s). The assay was started by adding the bacteria and was run at 37°C, with periodical shaking. Optical density (OD) measurement at 420 nm was performed every minute for 1–2 h using SpectraMax 250 Microplate Spectrophotometer (Molecular Devices, USA) and its SoftMax PRO software.
(A) Permeability of the inner membrane for a chromogenic marker o-nitrophenyl-β-D-galactoside (ONPG). ¼ of minimal inhibitory concentrations (MICs) of antimicrobial peptides (AMPs) and antibiotics were used when alone, and ¼ MIC of AMP + ¼ MIC of antibiotic when in combination. Curves illustrate ONPG degradation by the cytoplasmic β-galactosidase of bacteria, when the membranes are damaged by test substances. Curves slope and the time of their rising to the plateau correspond to the extent of this damage. […] Nitrocefin is a substrate for the periplasmic β-lactamase of the bacteria. RIF, rifampicin; PMB, polymyxin B; GEN, gentamicin; OFL, ofloxacin; OX, oxacillin.

[3] = Human PBMC, normal cells, MTT, 24 h, square brackets = twice the maximal tested concentration
[4] = Human neutrophils, normal cells, MTT, 24 h

Molecule | MEC of cytotoxic action (Human PBMC; human, 24 h) | MIC (E. coli ML-35p [1]; Escherichia coli, ML35P) [µM] | MEC of cytotoxic action (Human neutrophils; human, 24 h) | effect on cytoplasmic membrane permeability, substance alone (in words) (E. coli ML-35p [2]) | other results
Cc1onc(-c2ccccc2)c1C(=O)N[C@@H]1C(=O)N2[C@@H]1SC(C)(C)[C@@H]2C(=O)O [Oxacillin] | >50 [100] μM | > 250 | >50 [100] μM | – | –
CNC(C)C1CCC(N)C(OC2C(N)CC(N)C(OC3OCC(C)(O)C(NC)C3O)C2O)O1 (centres unmarked) [Gentamicin] | >50 [100] μM | 0.625 (≈ 0.299 µg/mL) | 50 µM | no substantial increase | –
CO[C@H]1/C=C/O[C@@]2(C)Oc3c(C)c(O)c4c(O)c(c(/C=N/N5CCN(C)CC5)c(O)c4c3C2=O)NC(=O)/C(C)=C\C=C\[C@H](C)[C@H](O)[C@@H](C)[C@@H](O)[C@@H](C)[C@H](OC(C)=O)[C@@H]1C [Rifampicin] | >20 [40] μM | 10 (≈ 8.23 µg/mL) | 20 µM | – | –
Lysozyme: egg white lysozyme, antimicrobial protein, from BioChemica | – | – | – | – | MEC of cytotoxic action (Human PBMC): >50 [100] μM; MEC of cytotoxic action (Human neutrophils): >50 [100] μM
CC[C@H](C)[C@H](NC(=O)[C@H](CCCCN)NC(=O)[C@H](CCC(=O)O)NC(=O)[C@H](CCCCN)NC(=O)[C@H](CO)NC(=O)[C@H](CCCCN)NC(=O)[C@H](CCCNC(=N)N)NC(=O)[C@H](Cc1ccccc1)NC(=O)[C@H](Cc1ccccc1)NC(=O)[C@H](CC(=O)O)NC(=O)CNC(=O)[C@H](CC(C)C)NC(=O)[C@@H](N)CC(C)C)C(=O)NCC(=O)N[C@@H](CCCCN)C(=O)N[C@@H](CCC(=O)O)C(=O)N[C@@H](Cc1ccccc1)C(=O)N[C@@H](CCCCN)C(=O)N[C@@H](CCCNC(=N)N)C(=O)N[C@H](C(=O)N[C@H](C(=O)N[C@@H](CCC(N)=O)C(=O)N[C@@H](CCCNC(=N)N)C(=O)N[C@H](C(=O)N[C@@H](CCCCN)C(=O)N[C@@H](CC(=O)O)C(=O)N[C@@H](Cc1ccccc1)C(=O)N[C@@H](CC(C)C)C(=O)N[C@@H](CCCNC(=N)N)C(=O)N[C@@H](CC(N)=O)C(=O)N[C@@H](CC(C)C)C(=O)N[C@H](C(=O)N1CCC[C@H]1C(=O)N[C@@H](CCCNC(=N)N)C(=O)N[C@H](C(=O)N[C@@H](CCC(=O)O)C(=O)N[C@@H](CO)C(=O)O)[C@@H](C)O)C(C)C)[C@@H](C)CC)C(C)C)[C@@H](C)CC [LL-37] | – | – | – | quite slow enhance of the membrane permeability | MEC of cytotoxic action (Human PBMC; [3]): 12 µM; effect on cytoplasmic membrane permeability in presence of gentamicin vs peptide/protein alone (in words) (E. coli ML-35p [2]; ¼ MIC + ¼ MIC gentamicin): developing rather quickly; MEC of cytotoxic action (Human neutrophils; [4]): 10 µM
Polymyxin B | – | – | – | – | MEC of cytotoxic action (Human PBMC; [3]): 50 µM; MIC (E. coli ML-35p [1]): 0.4 µM; MEC of cytotoxic action (Human neutrophils; [4]): >50 [100] μM
RFRLPFRRPPIRIHPPPFYPPFRRFL-NH2 (C-terminus assumed) [ChBac3.4] | – | – | – | no substantial effect | MEC of cytotoxic action (Human PBMC): 20 µM; development of membrane-damaging effect in combination with rifampicin (in words) (E. coli ML-35p [2]; ¼ MIC + ¼ MIC rifampicin): slight acceleration; MEC of cytotoxic action (Human neutrophils): >20 [40] μM
CC1COc2c(N3CCN(C)CC3)c(F)cc3c(=O)c(C(=O)O)cn1c23 (centres unmarked) [Ofloxacin] | >50 [100] μM | 0.125 (≈ 0.0452 µg/mL) | >50 [100] μM | – | –
